Data on four molecules can be found in article PMC12560828, “Chemical structure drives developmental toxicity of alkyl-substituted naphthalenes in zebrafish” (Environment international, 2025).

Data set [1] concerns early life stage zebrafish (Danio rerio) embryos. Kind of data set: Developmental toxicity morphology screen, sealed rotating vial exposure. The format is in vivo. Set-up: bmd, MO24 / bmd, MORT / bmd, ANY_ / bmd, AXIS / bmd, CRAN / bmd, EDEM / bmd, LTRK / bmd, MUSC / bmdL, ANY_ / bmdU, ANY_ / bmdL, AXIS / bmdU, AXIS / bmdL, CRAN / bmdU, CRAN / bmdL, EDEM / bmdU, EDEM / bmdL, LTRK / bmdU, LTRK / bmdL, MO24 / bmdU, MO24 / bmdL, MORT / bmdU, MORT: unit not given here. The conditions noted are these: for BMC50 Any effect: Fig. 2 heatmap, exposure 6-24 hpf in vials, summary of all endpoints; for any effect BMD50: SI-T5; for bmd, MO24: endpoint MO24; for bmd, MORT: endpoint MORT; for bmd, ANY_: morphology endpoint ANY_ (any effect); for bmd, AXIS: morphology endpoint AXIS; for bmd, CRAN: morphology endpoint CRAN; for bmd, EDEM: morphology endpoint EDEM. The procedure:
(§1) When embryos were 6 hpf they were bleached in groups of 1000 or less to limit bacterial growth in sealed vials. Embryos were placed in a strainer for transfer between solutions in 500 mL containers. […] Pools of eight embryos were placed into 2 mL clear glass screw cap exposure vials with polyvinyl-faced pulp liner (Avantar Radnor, PA, United States) using a glass Pasteur pipette. Excess EM was removed, and 2 mL of fresh EM was immediately added. A total of 10 uL of 200x working stock (in DMSO) was added to each vial, then immediately capped and inverted three times to mix. […] Vials were loaded into a custom 3D printed vial holder for slow end-over-end rotation in a dark 28 °C incubator overnight. […] At 24 hpf, embryos were removed from exposure vials and singulated into 96-well plates loaded with 100 μL chemical-free EM. Each exposure vial group was maintained in plate columns. After loading into 96-well plates, embryos were assessed for 24-hour mortality. For the remainder of the exposure, plates were kept stationary at 28 °C in the dark, until 120 hpf when morphology screening and the larval photo motor response (LPR) assay were conducted, section 2.3.2 and section 2.3.3, respectively.
Each treatment group was replicated over four vials, resulting in 32 embryos per treatment, split over two replicate 96-well plates per chemical. […] All reported concentrations were nominal water concentrations and are included in SI-T4.
At 24 hpf embryos were assessed for mortality (MO24). At 120 hpf embryos were assessed for abnormality in […] morphological endpoints: mortality (MORT), edemas (EDEM), bent axis (AXIS), touch response (TCHR), craniofacial (CRAN), muscular/cardiovascular (MUSC), lower trunk (LRTK), brain (BRAN), skin (SKIN), and notochord malformations (NC). Morphological assessments were made by a team of three to four individuals. The team was blinded to the identity, plate layout, and concentrations of the chemicals, thereby minimizing bias in morphological screening assessment. To ensure the assessments were consistent, concentration–response reproducibility of a parathion ethyl quality control plate was performed along with each experimental exposure set up. Details of all measured endpoints can be found at Developmental toxicity zebrafish phenotype atlas. […] Each endpoint was scored as a binary presence/absence and scores were compiled into an “Any effect” endpoint, the presence of abnormality in any individual endpoint.
The Any effect percent was used to calculate the BMC50, 50 % change relative to the background for each endpoint and chemical. All values were reported as the nominal exposure concentration.

Data set [2] deals with zebrafish larvae, 120 hpf. Kind of data set: Larval photomotor response (LPR) assay after vial exposure. The format is in vivo, Danio rerio. The following applies: LPR. The procedure: as §1
Each treatment group was replicated over four vials, resulting in 32 embryos per treatment, split over two replicate 96-well plates per chemical. […] Vial groups of plated larvae were tracked to assess the impact of the vial on the results. All reported concentrations were nominal water concentrations and are included in SI-T4.
The LPR assay was conducted at 120 hpf. […] Larval movement was tracked throughout minutes 6–24. Animals dead or morphologically abnormal were excluded from the analysis, and if more than 30 % of the wells in a treatment group were excluded, the treatment was removed.
Movement values were binned into 6s intervals, log normalized and used to calculate area under the curve (AUC). AUC values from the first cycle after calibration were used to calculate the LEL for each period (light and dark).

Setting [3] is: period dark, round 1, conc 3.125.
The mark [4] stands for this setting: period dark, round 1, conc 6.25.
Where [5] appears, read: period dark, round 1, conc 12.5.
The mark [6] stands for this setting: period light, round 1, conc 3.125.
Setting [7] is: period light, round 1, conc 6.25.
Where [8] appears, read: period light, round 1, conc 12.5.
The mark [9] stands for this setting: period dark, round 2, conc 37.5.
[10] abbreviates: period light, round 2, conc 37.5.

As for `Cc1cc2cccc(C)c2cc1C` [1,6,7-trimethylnaphthalene], the “BMC50 AXIS (curved or bent body axis at 120 hpf)” value (shortened to “BMC50 AXIS”) in data set [1] (Fig. 2, nominal concentration) amounted to 32.1 µM. Besides, the “BMC50 CRAN (craniofacial malformation at 120 hpf)” value (“BMC50 CRAN” below) in data set [1] (Fig. 2, nominal concentration) worked out at 28.2 µM. Also, the “BMC50 EDEM (pericardial and/or yolk sac edema at 120 hpf)” value in data set [1] (Fig. 2, nominal concentration) is 34.7 µM. In addition, the “BMC50 LTRK (lower trunk and/or caudal fin at 120 hpf)” value in data set [1] (Fig. 2, nominal concentration) came out at 32.9 µM. Further, in data set [1] (Fig. 2, nominal concentration), the “BMC50 MO24 (mortality at 24 hpf)” value worked out at 38.9 µM. Also, the “BMC50 MORT (mortality at 120 hpf)” value in data set [1] (Fig. 2, nominal concentration) amounted to 31.5 µM. In addition, the “BMC50 Any effect” value in data set [1] (nominal concentration) was 21.4 µM. Also, the “any effect BMD50” value in data set [1] stood at 21.39 µM. Moreover, the “bmd, MO24” value in data set [1] (benchmark dose) came to 38.9242. Further, in data set [1] (benchmark dose), the “bmd, MORT” value turned out to be 31.4823. In addition, the “bmd, ANY_” value in data set [1] (benchmark dose) is listed as 21.386. Moreover, the “bmd, AXIS” value in data set [1] (benchmark dose) is recorded as 32.075. The “bmd, CRAN” value in data set [1] (benchmark dose) came to 28.1944. In addition, the “bmd, EDEM” value in data set [1] (benchmark dose) was 34.7005. The “bmd, LTRK” value in data set [1] (benchmark dose, morphology endpoint LTRK) is 32.865. For the same molecule, the fold_change in data set [2] (setting [3]) is listed as -0.2752; in data set [2] (setting [4]), -0.07056; in data set [2] (setting [5]), -0.09309; in data set [2] (period dark, round 2, conc 12.8) it was -0.1665; in data set [2] (period dark, round 2, conc 16) it was -0.296; in data set [2] (period dark, round 2, conc 20), -0.09002. In addition, the fold_change is listed as -0.921 in data set [2] (setting [6]); -0.5316 in data set [2] (setting [7]); -0.2101 in data set [2] (setting [8]); 0.6308 in data set [2] (period light, round 2, conc 12.8); -0.8625 in data set [2] (period light, round 2, conc 16); 0.7418 in data set [2] (period light, round 2, conc 20).

Consider `Cc1ccc2c(C)cccc2c1` [1,6-dimethylnaphthalene], for which, in data set [1] (Fig. 2, nominal concentration), the “BMC50 AXIS” value was 46.6 µM, the “BMC50 CRAN” value came to 42.5 µM, the “BMC50 EDEM (pericardial and/or yolk sac edema at 120 hpf)” value is 46 µM and the “BMC50 MO24 (mortality at 24 hpf)” value was determined as 46.6 µM. Further, in data set [1] (Fig. 2, nominal concentration), the “BMC50 MORT (mortality at 120 hpf)” value was determined as 43.4 µM. Moreover, the “BMC50 Any effect” value in data set [1] (nominal concentration) amounted to 34.6 µM. The “any effect BMD50” value in data set [1] was found to be 34.56 µM. Also, in data set [1] (benchmark dose), the “bmd, MO24” value was found to be 46.5621; the “bmd, MORT” value is 43.4183; the “bmd, ANY_” value stood at 34.5645; the “bmd, AXIS” value came out at 46.5655. Also, in data set [1] (benchmark dose), the “bmd, CRAN” value was determined as 42.4789 and the “bmd, EDEM” value is given as 45.9847.

As to `Cc1cccc2cccc(C)c12` [1,8-dimethylnaphthalene], the “BMC50 MO24 (mortality at 24 hpf)” value in data set [1] (Fig. 2, nominal concentration) was 49.8 µM. The “BMC50 MORT (mortality at 120 hpf)” value in data set [1] (Fig. 2, nominal concentration) turned out to be 48.7 µM. Besides, the “BMC50 Any effect” value in data set [1] (nominal concentration) was 41.2 µM. Also, the “any effect BMD50” value in data set [1] was determined as 41.15 µM. For the same molecule, in data set [1] (benchmark dose), the “bmd, MO24” value worked out at 49.8371. Besides, the “bmd, MORT” value in data set [1] (benchmark dose) is listed as 48.678. In data set [1] (benchmark dose), the “bmd, ANY_” value is given as 41.1508. Also, the fold_change in data set [2] (setting [3]) is on record as -0.1333; in data set [2] (setting [4]), 0.3857; in data set [2] (setting [5]), -0.2522; in data set [2] (period dark, round 1, conc 25) it was -0.4588; in data set [2] (period dark, round 2, conc 30), -0.4155; in data set [2] (setting [9]), -0.7493. For the same molecule, the fold_change is recorded as -0.6849 in data set [2] (period dark, round 2, conc 45); 0.4922 in data set [2] (setting [6]); 0.5326 in data set [2] (setting [7]); -0.3791 in data set [2] (setting [8]); 0.4908 in data set [2] (period light, round 1, conc 25); -0.235 in data set [2] (period light, round 2, conc 30). Also, the fold_change is -0.3043 in data set [2] (setting [10]) and 1.248 in data set [2] (period light, round 2, conc 45).

`CCc1cccc2ccccc12` [1-ethylnaphthalene]: the “BMC50 AXIS” value in data set [1] (Fig. 2, nominal concentration) worked out at 43.9 µM. For the same molecule, in data set [1] (Fig. 2, nominal concentration), the “BMC50 CRAN” value worked out at 46.3 µM. Moreover, the “BMC50 MO24 (mortality at 24 hpf)” value in data set [1] (Fig. 2, nominal concentration) amounted to 44.6 µM. Further, in data set [1] (Fig. 2, nominal concentration), the “BMC50 MORT (mortality at 120 hpf)” value stood at 41.9 µM. Besides, in data set [1] (nominal concentration), the “BMC50 Any effect” value is 33.7 µM. In addition, the “any effect BMD50” value in data set [1] was 33.7 µM. Further, the “bmd, MO24” value in data set [1] (benchmark dose) was found to be 44.6047. Also, the “bmd, MORT” value in data set [1] (benchmark dose) is listed as 41.9285. Further, the “bmd, ANY_” value in data set [1] (benchmark dose) worked out at 33.6977. The “bmd, AXIS” value in data set [1] (benchmark dose) is 43.8887. In addition, in data set [1] (benchmark dose), the “bmd, CRAN” value was found to be 46.3281. Besides, the fold_change in data set [2] (setting [3]) is recorded as 0.05526; in data set [2] (setting [4]), 0.06428; in data set [2] (setting [5]), -0.02558; in data set [2] (period dark, round 1, conc 25), -0.1629; in data set [2] (period dark, round 2, conc 30) it was -0.2464; in data set [2] (setting [9]), -0.2326. Further, the fold_change is on record as -0.3674 in data set [2] (setting [6]); -0.401 in data set [2] (setting [7]); -0.744 in data set [2] (setting [8]); 0.4136 in data set [2] (period light, round 1, conc 25); 0.3971 in data set [2] (period light, round 2, conc 30); -0.206 in data set [2] (setting [10]).
